# Experimental data published in US20170209415A1, “USE OF (+)-1-(3,4-DICHLOROPHENYL)-3-AZABICYCLO[3.1.0]HEXANE TO TREAT ADDICTIVE DISORDERS INCLUDING NICOTINE ADDICTION” (priority 2012, published 2017).
# Key:
# [1] = test system: alcohol-preferring (P) rats; test: Nicotine potentiation of intracranial self-stimulation (ICSS) in alcohol-preferring rats; format: in vivo, rat
# Experimental: (§1) Rats were anesthetized with isoflurane and an electrode was implanted in the medial forebrain bundles as previously described (Eiler et al., 2005; 2007). Behavioral training and testing was conducted in standard operant chambers (Coulbourn Instruments, Allentown, Pa.) equipped with a removable lever enclosed in a sound attenuating cubicle as previously reported (Eiler et al., 2005; 2007). Four dependent variables were collected in the studies: (1) the frequency that corresponds with 50% of responding (EF50), (2) the minimum/lowest frequency capable of maintaining brain stimulation reward (BSR), (3) the maximum frequency producing the highest rate of lever pressing throughout the BSR session, and (4) the total number of lever presses produced during a 20 minute session.
# After surgical implantation, rats were trained on a continuous reinforcement (FR1) schedule, then decreased to a frequency of reinforcement after every six correct responses (FR6) until stabilization.
# Following the initial ICSS experiments, the effects of varied doses of nicotine were examined in the ICSS paradigm. Animals were prepared and trained as described above.
# as §1, with “The effect of (+)-1-(3, 4-dichlorophenyl)-3-azabicyclo[3.1.0]hexane on the nicotine facilitation of ICSS was examined in P rats. Rats” for “Rats”, “session” for “session,”
# After surgical implantation, rats were trained on a continuous reinforcement (FR1) schedule, then decreased to a frequency of reinforcement after every six correct responses (FR6) until stabilization. After training, the rats were sensitized with nicotine (0.4 mg/kg daily) using the Kelley 10-day sensitization model as described in Example I (rats were treated with either nicotine (0.4 mg/ml/kg) or saline once per day for 10 days in a test environment distinct from their home cages (Schroeder et al., 2001).
# After sensitization, three of the nicotine cohorts of P rats (n=8) were given (+)-1-(3, 4-dichlorophenyl)-3-azabicyclo[3.1.0]hexane (10, 20 or 40 μg) into the medial prefrontal cortex (mPC) prior to the daily administration of nicotine (0.4 mg/ml/kg).
# [2] = test system: alcohol-preferring (P) rats; test: Nicotine sensitization, open field locomotor activity in alcohol-preferring rats; format: in vivo, rat; conditions: for locomotor activity when administered alone: oral 2.5-40 mg/kg without nicotine, P rats
# Experimental: P and NP (alcohol-nonpreferring) rats were administered nicotine by subcutaneous injection of 0.4 mg/kg nicotine each day for 10 days. The rats were then immediately run for 90 minute locomotor sessions using an open-field activity monitoring cage (27×27×20.3 cm, Med Associates, Inc., St. Albans, Vt.). Activity counts represented by the number of infrared beam interruptions were recorded for each animal.
# To evaluate the capacity of oral (+)-1-(3, 4-dichlorophenyl)-3-azabicyclo[3.1.0]hexane to block nicotine-induced sensitization in P rats, cohorts of P rats (n=6-9/group) were sensitized to nicotine as described in Example I. The rats were then divided into sixteen groups and given either vehicle, nicotine alone, 2.5 mg/kg (+)-1-(3, 4-dichlorophenyl)-3-azabicyclo[3.1.0]hexane, 5 mg/kg (+)-1-(3, 4-dichlorophenyl)-3-azabicyclo[3.1.0]hexane, 10 mg/kg (+)-1-(3, 4-dichlorophenyl)-3-azabicyclo[3.1.0]hexane, 25 mg/kg (+)-1-(3, 4-dichlorophenyl)-3-azabicyclo[3.1.0]hexane, or 40 mg/kg (+)-1-(3, 4-dichlorophenyl)-3-azabicyclo[3.1.0]hexane. Thirty minutes after administration of (+)-1-(3, 4-dichlorophenyl)-3-azabicyclo[3.1.0]hexane, half of the rats were given 0.4 mg/kg nicotine or vehicle. The rats were then immediately run for 90 minute locomotor sessions using an open-field activity monitoring cage (27×27×20.3 cm, Med Associates, Inc., St. Albans, Vt.). Activity counts represent the number of infrared beam interruptions were recorded for each animal.
# α7 nicotinic receptors = molecular target: T1, α7 nicotinic receptors (Homo sapiens, UniProt P36544); test: Radioligand binding to α7 nicotinic receptors in SH-SYSY cells ([125I]α-bungarotoxin)
# T1 construct: Cerep, Inc. (Poitiers, France), contract assay; host or cells: SH-SYSY (SH-SY5Y) cells
# Experimental: (§2) To examine the possibility that a (+)-1-(3, 4-dichlorophenyl)-3-azabicyclo[3.1.0]hexane may have effects mediated via direct actions on nicotinic receptors, its affinity was determined for α7 and α4β2 nicotinic receptors in radioligand binding assays. The assessment was conducted by Cerep, Inc. (Poitiers, France). Inhibition of binding to α4β2 nicotinic receptors in SH-SYSY cells was determined using the radioligand [^3H]cytosine at 0.6 nM concentration according to the method of Gopalakrishnan et al. (1996). Incubation was for 120 minutes at 4° C. and non-specific binding was determined with 10 μM nicotine. Inhibition of binding to α7 nicotinic receptors in SH-SYSY cells was determined using [^125I]α-bungarotoxin (0.05 nM) according to the method of Sharples et al. (2000). Incubation was 120 minutes at 37° C. and non-specific binding was determined using α-bungarotoxin (1 μM). Specific binding of the radioligands was determined by scintillation spectrometry technology.
# [3] = cited from earlier work
# [4] = test system: alcohol-preferring (P) rats; test: Nicotine withdrawal effects in ICSS paradigm in alcohol-preferring rats; format: in vivo, rat
# Experimental: as §1, with “session” for “session,”
# After surgical implantation, rats were trained on a continuous reinforcement (FR1) schedule, and then decreased to a frequency of reinforcement after every six correct responses (FR6) until stabilization. After training, the rats were sensitized with nicotine (0.4 mg/kg daily) for 14 days. 12 hours after the last dose of nicotine, animals were run for a 20 min FR-6 ICSS sessions. ICSS sessions were run every 12 hours (12 hrs, 24 hrs, 36 hrs, 48 hrs, 60 hrs and 72 hrs) for 72 hours.
# as §1, with “The effect of (+)-1-(3, 4-dichlorophenyl)-3-azabicyclo[3.1.0]hexane on nicotine withdrawal and ICSS was examined in P rats. Rats” for “Rats”, “session” for “session,”
# After surgical implantation, rats were trained on a continuous reinforcement (FR1) schedule, and then decreased to a frequency of reinforcement after every six correct responses (FR6) until stabilization. After training, the rats were sensitized with nicotine (0.4 mg/kg daily) for 14 days. Rats were then given either PBS, 20 mg/kg of (+)-1-(3, 4-dichlorophenyl)-3-azabicyclo[3.1.0]hexane or 40 mg/kg of (+)-1-(3, 4-dichlorophenyl)-3-azabicyclo[3.1.0]hexane. After 48 hours, the animals were run for a 20 min FR-6 ICSS session.
# [5] = test system: alcohol-preferring (P) rats; test: Forced swim test during nicotine withdrawal in alcohol-preferring rats; format: in vivo, rat
# Experimental: The forced swim test (FST) is an animal model of depression in which nicotine withdrawal causes increased immobility (i.e. despair) in the rodents. The FST accordingly may be used as an animal model to evaluate negative affective states during nicotine withdrawal, which may emulate “depressive-like” behavior in human nicotine addicts.
# P rats were administered nicotine by subcutaneous injection of 0.4 mg/kg nicotine each day for 14 days and then deprived of nicotine. Lucki's modified FST (Cryan et al., 2002) was performed using immobility, climbing and swimming every twelve hours following the last dose of nicotine (12 hrs, 24 hrs, 36 hrs, 48 hrs, 60 hrs and 72 hrs) for 72 hours.
# α4β2 nicotinic receptors = molecular target: T2, α4β2 nicotinic receptors (Homo sapiens, UniProt P17787+P43681); test: Radioligand binding to α4β2 nicotinic receptors in SH-SYSY cells ([3H]cytosine)
# T2 construct: Cerep, Inc. (Poitiers, France), contract assay; host or cells: SH-SYSY (SH-SY5Y) cells
# Experimental: as §2
# [6] = read-out: % Inhibition of binding
# [7] = oral 20 and 40 mg/kg, 48 hours nicotine abstinence
# [8] = 0.2-0.8 mg/kg SQ, all 3 doses, sensitized P rats
# [9] = 12-72 hrs after last dose, 0.4 mg/kg daily for 14 days
# [10] = after 0.4 mg/kg sc daily for 14 days
# T1 sequence (P36544 23-502): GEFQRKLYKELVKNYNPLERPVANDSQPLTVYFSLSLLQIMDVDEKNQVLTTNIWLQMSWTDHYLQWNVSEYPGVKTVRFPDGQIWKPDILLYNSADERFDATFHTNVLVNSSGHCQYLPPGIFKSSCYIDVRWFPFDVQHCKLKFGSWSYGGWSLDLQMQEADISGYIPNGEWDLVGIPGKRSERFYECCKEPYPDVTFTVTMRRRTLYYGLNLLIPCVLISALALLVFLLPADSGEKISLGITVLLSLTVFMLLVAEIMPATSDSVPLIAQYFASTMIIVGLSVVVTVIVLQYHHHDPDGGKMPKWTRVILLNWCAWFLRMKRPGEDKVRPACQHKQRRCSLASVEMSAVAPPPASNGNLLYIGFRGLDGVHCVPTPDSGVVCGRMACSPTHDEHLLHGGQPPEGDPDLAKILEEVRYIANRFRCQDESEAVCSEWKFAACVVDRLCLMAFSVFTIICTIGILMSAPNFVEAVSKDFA
# T2 sequence (P43681 29-627 limits assumed): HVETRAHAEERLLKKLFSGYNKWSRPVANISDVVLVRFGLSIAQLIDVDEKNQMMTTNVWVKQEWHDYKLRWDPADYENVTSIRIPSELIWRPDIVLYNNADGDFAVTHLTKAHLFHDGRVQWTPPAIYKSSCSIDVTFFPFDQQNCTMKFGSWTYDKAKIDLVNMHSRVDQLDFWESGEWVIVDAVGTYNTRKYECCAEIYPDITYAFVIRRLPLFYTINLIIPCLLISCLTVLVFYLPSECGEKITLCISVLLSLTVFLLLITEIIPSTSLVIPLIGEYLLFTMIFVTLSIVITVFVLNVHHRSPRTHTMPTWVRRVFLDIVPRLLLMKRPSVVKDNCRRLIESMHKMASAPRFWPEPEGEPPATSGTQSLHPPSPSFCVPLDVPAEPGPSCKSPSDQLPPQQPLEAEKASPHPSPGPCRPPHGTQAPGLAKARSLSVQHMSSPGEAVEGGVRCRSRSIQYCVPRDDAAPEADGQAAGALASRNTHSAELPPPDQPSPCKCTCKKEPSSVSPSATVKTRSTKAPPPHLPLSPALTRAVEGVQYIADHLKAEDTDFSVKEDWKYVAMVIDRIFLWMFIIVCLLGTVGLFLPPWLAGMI
# T2 sequence (P17787 26-502): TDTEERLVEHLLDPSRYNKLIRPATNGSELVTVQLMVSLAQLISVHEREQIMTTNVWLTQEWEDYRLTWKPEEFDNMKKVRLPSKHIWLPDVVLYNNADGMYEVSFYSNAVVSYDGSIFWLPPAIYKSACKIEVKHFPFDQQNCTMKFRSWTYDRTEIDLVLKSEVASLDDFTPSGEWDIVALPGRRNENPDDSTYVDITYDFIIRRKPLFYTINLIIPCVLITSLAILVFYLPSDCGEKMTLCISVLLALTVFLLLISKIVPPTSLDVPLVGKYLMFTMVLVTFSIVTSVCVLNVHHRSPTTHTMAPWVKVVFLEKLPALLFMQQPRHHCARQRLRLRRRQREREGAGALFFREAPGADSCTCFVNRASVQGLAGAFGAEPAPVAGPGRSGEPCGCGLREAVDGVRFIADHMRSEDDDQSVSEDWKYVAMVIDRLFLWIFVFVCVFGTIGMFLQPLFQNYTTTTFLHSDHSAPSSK
structure (smiles),measurement,setting,value
"Clc1ccc([C@]23CNC[C@H]2C3)cc1Cl [amitifadine, (1R,5S)-(+)-1-(3,4-dichlorophenyl)-3-azabicyclo[3.1.0]hexane]",nicotine elevation in total responding,"[1]; 10, 20 or 40 μg into mPC",attenuation
same,nicotine reduction of EF50,"[1]; 10, 20 or 40 μg into mPC",attenuation
same,nicotine reduction of minimum frequency,"[1]; 10, 20 or 40 μg into mPC",attenuation
same,nicotine facilitation on ICSS,"[1]; 10, 20 or 40 μg into medial prefrontal cortex immediately prior to nicotine 0.4 mg/ml/kg, P rats",significantly reduced
same,nicotine-induced increases in horizontal activity,"[2]; oral 2.5, 5, 10, 25, 40 mg/kg, 30 min before 0.4 mg/kg nicotine, sensitized P rats, 90 minute open field session",significantly reduced
same,locomotor activity when administered alone,[2]; 90 minute open field session,did not significantly alter
same,locomotor activity when administered alone,"[2]; 90 minute open field session, listed as (+)-1-(3, 4-dichlorophenyl)-3-azabicyclo[3.1.0]hexane",did not alter
same,inhibition at 0.1 µM,α7 nicotinic receptors; [6],13%
same,inhibition at 1 µM,α7 nicotinic receptors; [6],6%
same,inhibition at 10 µM,α7 nicotinic receptors; [6],-9%
same,effect on binding of radioligand,"α7 nicotinic receptors; α7, concentrations from 100 to 10,000 nM",no appreciable effect
same,tolerability,"[3]; U.S. Ser. No. 13/310,694, Graff et al. 2009",well tolerated
same,"dopaminergic side effects such as nausea, vomiting, and hypomania",[3]; in vivo,did not lead to
same,noradrenergic side effects such as significantly elevated heart rate and increased systolic and diastolic blood pressure,[3]; in vivo,did not lead to
same,reduction in responding produced by the 48 hour withdrawal period,[4]; oral 20 and 40 mg/kg,elevated
same,"nicotine elevation of the reward threshold, EF50",[4]; [7],profound reduction
same,"nicotine elevation of the reward threshold, minimum frequency",[4]; [7],profound reduction
same,nicotine-induced increases in immobility,[5]; oral 12.5 or 25 mg/kg administered at 48 hours of nicotine abstinence,significantly attenuated
same,inhibition at 0.1 µM,α4β2 nicotinic receptors; concentration 100 nM,17%
same,inhibition at 1 µM,α4β2 nicotinic receptors; concentration 1000 nM,14%
same,inhibition at 10 µM,α4β2 nicotinic receptors; concentration 10000 nM,13%
same,effect on binding of radioligand,"α4β2 nicotinic receptors; concentrations from 100 to 10,000 nM",no appreciable effect
"COC[C@@H]1[C@@H](c2ccc(Cl)c(Cl)c2)C[C@@H]2CC[C@H]1N2 [GSK372475, reference compound]",noradrenergic side effects such as significantly elevated heart rate and increased systolic and diastolic blood pressure,[3]; in vivo,seen
CN1CCCC1c1cccnc1 (stereo not shown) [nicotine],sensitivity to the reward potentiating effects of nicotine in ICSS following sensitization,"[1]; 0.4 mg/kg sc on day 11, P, but not NP, rats",enhanced sensitivity
same,ICSS responding versus saline,"[1]; 0.2-0.8 mg/kg SQ on day 11, sensitized P rats",higher responding than did saline
same,EF50,[1]; [8],reduction
same,minimum frequency,[1]; [8],reduction
same,sensitization to nicotine (open field activity),"[2]; 0.4 mg/kg sc daily for 10 days, P versus NP rats",occurs in P rats only
same,EF50 during withdrawal,[4]; [9],time dependent increase
same,minimum frequency capable of maintaining BSR during withdrawal,[4]; [9],time dependent increase
same,total ICSS responding during withdrawal,[4]; [9],marked reduction
same,climbing during nicotine abstinence,[5]; [10],Reduction
same,swimming during nicotine abstinence,[5]; [10],Reduction
same,immobility during nicotine abstinence,[5]; at 48 and 72 hours after 0.4 mg/kg sc daily for 14 days,significant elevation
